Experimental data published in article PMC3317778, “Development of a Unique Small Molecule Modulator of CXCR4” (PLoS ONE, 2012).

How the values were obtained:
[1] = biological target: T1, CXC chemokine receptor-4 (CXCR4) (Homo sapiens, UniProt P61073)
[2] = biological target: T1, CXC chemokine receptor-4 (CXCR4); assay: competition with biotinylated TN14003 on MDA-MB-231 cells (immunofluorescence); supported by CXCL12-induced cAMP modulation assay in CXCR4-expressing cells (IC50 is for CXCR4/CXCL12 actions); assay type: cell-based

T1 sequence (P61073 whole entry): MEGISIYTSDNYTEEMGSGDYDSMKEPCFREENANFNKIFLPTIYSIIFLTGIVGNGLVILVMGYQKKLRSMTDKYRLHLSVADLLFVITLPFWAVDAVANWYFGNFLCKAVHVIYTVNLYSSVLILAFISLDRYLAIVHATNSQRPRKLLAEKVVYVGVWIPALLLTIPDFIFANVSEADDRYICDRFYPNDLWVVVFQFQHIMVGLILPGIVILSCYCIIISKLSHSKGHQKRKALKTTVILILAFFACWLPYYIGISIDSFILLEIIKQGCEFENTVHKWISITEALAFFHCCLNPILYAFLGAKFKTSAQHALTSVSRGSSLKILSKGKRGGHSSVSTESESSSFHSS

Structure (SMILES)	reference antagonist; block of CXCL12-induced cAMP reduction in U87CD4CXCR4 cell [1]	IC50 [2]
c1cc(CN2CCCNCCNCCCNCC2)ccc1CN1CCCNCCNCCCNCC1 [AMD3100]	1000 nM	–
c1cnc(NCc2ccc(CNc3ncccn3)cc2)nc1 [MSX-122, N,N′-(1,4-phenylenebis(methylene))dipyrimidin-2-amine]	–	~10 nM
